Article doi:10.1101/2024.12.09.627639v1 (biorxiv, 2024)

Target: FFA1 (GPR40) (Homo sapiens, UniProt O14842)
Assay: aequorin calcium luminescence assay, CHO cells
Format: cell-based

FFA1 (GPR40), sequence (O14842 whole entry): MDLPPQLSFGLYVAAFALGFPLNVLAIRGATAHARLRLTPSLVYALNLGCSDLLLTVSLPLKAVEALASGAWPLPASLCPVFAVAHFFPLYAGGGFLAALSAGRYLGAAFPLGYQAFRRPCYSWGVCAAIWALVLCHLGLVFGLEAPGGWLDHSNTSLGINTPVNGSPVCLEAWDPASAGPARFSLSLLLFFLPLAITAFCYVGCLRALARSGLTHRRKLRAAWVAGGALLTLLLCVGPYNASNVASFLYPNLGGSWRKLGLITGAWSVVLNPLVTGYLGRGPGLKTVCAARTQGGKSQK

SMILES: CC/C=C\C/C=C\C/C=C\C/C=C\C/C=C\C/C=C\CCC(=O)O [DHA]
- EC50: 40 µM
